Reference: ChEMBL document CHEMBL1821633, “Norcantharimide analogues possessing terminal phosphate esters and their anti-cancer activity” (2011)

Tests used:
Format in all cases: functional
[1] = tested on: A-431; assay: Antiproliferative activity against human A431 cells after 72 hrs by MTT assay; details: A-431, 72 h
[2] = tested on: A2780; assay: Antiproliferative activity against human A2780 cells after 72 hrs by MTT assay; details: A2780, 72 h
[3] = tested on: DU-145; assay: Antiproliferative activity against human DU145 cells after 72 hrs by MTT assay; details: DU-145, 72 h
[4] = tested on: MCF7; assay: Antiproliferative activity against human MCF7 cells after 72 hrs by MTT assay; details: MCF7, 72 h
[5] = tested on: SW480; assay: Antiproliferative activity against human SW480 cells after 72 hrs by MTT assay; details: SW480, 72 h
[6] = tested on: NCI-H460; assay: Antiproliferative activity against human H460 cells after 72 hrs by MTT assay; details: NCI-H460, 72 h
[7] = Antiproliferative activity against human BE(2)-C cells after 72 hrs by MTT assay
[8] = tested on: HT-29; assay: Antiproliferative activity against human HT-29 cells after 72 hrs by MTT assay; details: HT-29, 72 h
[9] = Antiproliferative activity against human SJ-G2 cells after 72 hrs by MTT assay; details: SJ-G2, 72 h

| SMILES | GI50 [1] | GI50 [2] | GI50 [3] | GI50 [4] | GI50 [5] | GI50 [6] | GI50 [7] | GI50 [8] | GI50 [9] |
| --- | --- | --- | --- | --- | --- | --- | --- | --- | --- |
| O=C1[C@@H]2[C@H](C(=O)N1CCCCCOP(=O)(Oc1ccccc1)Oc1ccccc1)[C@H]1CC[C@@H]2O1 | 45 µM | 46 µM | 52 µM | 31 µM | 50 µM | 63 µM | 56 µM | 42 µM | 50 µM |
| O=C1[C@@H]2[C@H](C(=O)N1CCCCOP(=O)(OCC(Cl)(Cl)Cl)OCC(Cl)(Cl)Cl)[C@H]1CC[C@@H]2O1 | 31 µM | 26 µM | 49 µM | 28 µM | 32 µM | 56 µM | 40 µM | 16 µM | 48 µM |
| O=C1[C@@H]2[C@H](C(=O)N1CCOP(=O)(Oc1ccccc1)Oc1ccccc1)[C@H]1CC[C@@H]2O1 | > 100 µM | > 100 µM | > 100 µM | > 100 µM | > 100 µM | > 100 µM | > 100 µM | > 100 µM | > 100 µM |
| O=C1OC(=O)C2C3CCC(O3)C12 (stereo not drawn) [DEMETHYL-CANTHARIDIN] | 31 µM | 38 µM | 28 µM | 68 µM | 44 µM | 45 µM | 43 µM | 57 µM | 23 µM |
| O=C1[C@@H]2[C@H](C(=O)N1CCO)[C@H]1CC[C@@H]2O1 | > 100 µM | > 100 µM | > 100 µM | > 100 µM | > 100 µM | > 100 µM | > 100 µM | > 100 µM | > 100 µM |
| O=C1[C@@H]2[C@H](C(=O)N1CCCOP(=O)(Oc1ccccc1)Oc1ccccc1)[C@H]1CC[C@@H]2O1 | > 100 µM | > 100 µM | > 100 µM | > 100 µM | > 100 µM | > 100 µM | > 100 µM | > 100 µM | > 100 µM |
| CCOP(=O)(OCC)O[C@H]1CCCC[C@@H]1N1C(=O)[C@@H]2[C@H](C1=O)[C@H]1CC[C@@H]2O1 | 47 µM | 22 µM | 36 µM | 50 µM | 33 µM | 89 µM | 31 µM | 57 µM | 60 µM |
| CCOP(=O)(OCC)OCCN1C(=O)[C@@H]2[C@H](C1=O)[C@H]1CC[C@@H]2O1 | 27 µM | 15 µM | 21 µM | 28 µM | 18 µM | 49 µM |  | 33 µM | 43 µM |
| O=C1[C@@H]2[C@H](C(=O)N1[C@H]1CCCC[C@@H]1OP(=O)(Oc1ccccc1)Oc1ccccc1)[C@H]1CC[C@@H]2O1 | 26 µM | 24 µM | 35 µM | 14 µM | 26 µM | 48 µM | 28 µM | 11 µM | 31 µM |
| O=C1[C@@H]2[C@H](C(=O)N1CCCOP(=O)(OCC(Cl)(Cl)Cl)OCC(Cl)(Cl)Cl)[C@H]1CC[C@@H]2O1 | 80 µM | 47 µM | > 100 µM | 60 µM | 72 µM | 78 µM | 50 µM | 57 µM | 58 µM |
| O=C1[C@@H]2[C@H](C(=O)N1CCCCCCOP(=O)(OCC(Cl)(Cl)Cl)OCC(Cl)(Cl)Cl)[C@H]1CC[C@@H]2O1 | 12 µM | 7.7 µM | 13 µM | 12 µM | 10 µM | 13 µM | 9.3 µM | 11 µM | 14 µM |
| CCOP(=O)(OCC)OCCCCCCN1C(=O)[C@@H]2[C@H](C1=O)[C@H]1CC[C@@H]2O1 | > 100 µM | > 100 µM | > 100 µM | > 100 µM | > 100 µM | > 100 µM | > 100 µM | > 100 µM | > 100 µM |
| CCOP(=O)(OCC)OCCCCN1C(=O)[C@@H]2[C@H](C1=O)[C@H]1CC[C@@H]2O1 | > 100 µM | > 100 µM | > 100 µM | > 100 µM | > 100 µM | > 100 µM | > 100 µM | > 100 µM | > 100 µM |
| O=C1[C@@H]2[C@H](C(=O)N1CCCCCCO)[C@H]1CC[C@@H]2O1 | > 100 µM | > 100 µM | > 100 µM | > 100 µM | > 100 µM | > 100 µM | > 100 µM | > 100 µM | > 100 µM |
| O=C1[C@@H]2[C@H](C(=O)N1CCOP(=O)(OCC(Cl)(Cl)Cl)OCC(Cl)(Cl)Cl)[C@H]1CC[C@@H]2O1 | > 100 µM | > 100 µM | > 100 µM | > 100 µM | > 100 µM | > 100 µM | > 100 µM | > 100 µM | > 100 µM |
| O=C1[C@@H]2[C@H](C(=O)N1CCCCOP(=O)(Oc1ccccc1)Oc1ccccc1)[C@H]1CC[C@@H]2O1 | 21 µM | 17 µM | 13 µM | 19 µM | 28 µM | 64 µM | 25 µM | 14 µM | 17 µM |
| CCOP(=O)(OCC)OCCCCCN1C(=O)[C@@H]2[C@H](C1=O)[C@H]1CC[C@@H]2O1 | > 100 µM | > 100 µM | > 100 µM | > 100 µM | > 100 µM | > 100 µM | > 100 µM | > 100 µM | > 100 µM |
| O=C1[C@@H]2[C@H](C(=O)N1CCCCCOP(=O)(OCC(Cl)(Cl)Cl)OCC(Cl)(Cl)Cl)[C@H]1CC[C@@H]2O1 | 18 µM | 16 µM | 26 µM | 16 µM | 17 µM | 29 µM | 22 µM | 15 µM | 19 µM |
| O=C1[C@@H]2[C@H](C(=O)N1CCCCCCOP(=O)(Oc1ccccc1)Oc1ccccc1)[C@H]1CC[C@@H]2O1 | 13 µM | 11 µM | 7 µM | 9.1 µM | 14 µM | 25 µM | 14 µM | 5.4 µM | 14 µM |
| O=C1[C@@H]2[C@H](C(=O)N1[C@H]1CCCC[C@@H]1OP(=O)(OCC(Cl)(Cl)Cl)OCC(Cl)(Cl)Cl)[C@H]1CC[C@@H]2O1 | 48 µM | 39 µM | 69 µM | 54 µM | 69 µM | > 100 µM | 51 µM | 56 µM | 45 µM |
| O=C1c2ccccc2C(=O)N1CCCOP(=O)(Oc1ccccc1)Oc1ccccc1 | > 100 µM | > 100 µM | > 100 µM | > 100 µM | > 100 µM | > 100 µM | > 100 µM | > 100 µM | > 100 µM |
